Results as given in patent US20140072654A1, “CANCER WITH METABOLIC THERAPY AND HYPERBARIC OXYGEN” (priority 2011, published 2014).

How the values were obtained:
[1] = rat; cited from earlier work
[2] = in vivo; cited from earlier work
VM-M3 cells = format: cell-based, mouse; conditions: 5 mM βHB, 24, 48, 72 and 96 hrs
Method: Cell proliferation rate was measured using the MTT Cell Proliferation Assay (ATCC). Cells were plated onto a 96 well plate and grown to desired density. […] In proliferating cells, MTT is reduced to purple formazan which absorbs light at 490-520 nm and whose excitation can be measured using standard fluorescent microscopy and spectrophotometry. Rapidly dividing cells reduce MTT at very high rates, indicating their rate of proliferation. Cell proliferation can also be measured with Ki67 immunohistochemistry staining, cell viability can also be evaluated with the LDH Cytotoxicity Assay (Cayman Chemical).
Cell viability was measured using the LIVE/DEAD Viability/Cytotoxicity Kit for Mammalian Cells (Invitrogen). Cells were grown to desired density on a coverslip and washed with Dulbecco's phosphate-buffered saline (D-PBS). […] The two-color fluorescence assay contains two probes which specifically label live or dead cells. […] Calcein produces an intense green fluorescence with an excitation/emission of 495/515 nm. Ethidium homodimer-1 (Ethd-1) enters cells with damaged membranes and binds to nucleic acid. Ethd-1 bound to DNA produces a red fluorescence in dead cells with an excitation/emission of 495/635 nm. Live and dead cells were identified and quantified using standard fluorescent microscopy. […]

[3] = test system: primary cultured cortex neurons; assay: Superoxide anion production (DHE fluorescence) in neurons treated with HBO or amyloid beta; format: cell-based, rat; conditions: 60 min, 5 ATA O2; 2 mM ketones
Method: Effect of ketones on superoxide production in neurons treated with Aβ1-42 and HBO and cell viability of U87MG cells was examined Primary dissociated neuronal cultures of the hippocampus and cortex were acquired from Brain Bits LLC, to increase time efficiency and to minimize cost associated with purchasing rats. Hippocampal or cortical tissue from Brain Bits (shipped in Hibernate®) were enzymatically and mechanically dissociated via pipette trituration. Neurons were plated on 12 mm glass coverslips and allowed to adhere for 1-2 hrs in an incubator maintained at 9-20% O2 in a humidified atmosphere. Cultures were maintained in media purchased from Brain Bits, including NbActiv1® and NbActive4. […]
Presence of intracellular ROS is measured by detection of superoxide anion using Dihydroethidium (DHE). […] Cells were washed in PBS and then visualized using fluorescent microscopy or quantified using spectrophotometry. […]
Acquisition and statistical analyses of fluorescence imaging was performed as previously reported (D'Agostino, 2007; Filosa, 2002; Ritucci, 1996; Ritucci, 1997; Ritucci, 1998; Crowe, 1995; Weinlich, 1998; Inglefield, 1998; Inglefield, 1999). Average fluorescence intensity (FI) for each cell is calculated as the percent change in fluorescence from baseline, […], where FIb is the basal fluorescence defined by the two images preceding the experimental recordings. […]

CC(C)=O [Acetone]
LD50 [1]: > 5000 mg/kg

MCT oil
levels of ketones produced by supplementation [2]: < 500 µM

CC(O)CC(=O)O (stereo not drawn) [βHB, β-hydroxybutyrate]
proliferation (VM-M3 cells): significantly decreased

Cc1ccccc1NC(=N)Nc1ccccc1C [DTG, 1,3,-di-o-tolylguanidine]
effect on superoxide anion production under hyperoxia [3]: prevented the hyperoxia-induced increase in superoxide production
